From ChEMBL document CHEMBL1148604 (J Med Chem, 2006)
pIC50: −log10 of the molar value. ≈ marks a conversion by molar mass, not a printed value. Calls of active or inactive are those of the source. The rule behind the calls is not given here.

Experiments:
[1] = tested on: Mycobacterium tuberculosis; test: Inhibitory activity against Mycobacterium tuberculosis H37Rv; assay type: functional
Escherichia coli = test: Inhibitory activity against Escherichia coli ANSI; assay type: functional
[2] = target: T1, 3-oxoacyl-[acyl-carrier-protein] synthase 1 (Mycobacterium tuberculosis) (UniProt P9WQD9); test: Inhibitory activity against KasA from Mycobacterium tuberculosis H37Rv at 100 uM
T1 sequence (whole entry): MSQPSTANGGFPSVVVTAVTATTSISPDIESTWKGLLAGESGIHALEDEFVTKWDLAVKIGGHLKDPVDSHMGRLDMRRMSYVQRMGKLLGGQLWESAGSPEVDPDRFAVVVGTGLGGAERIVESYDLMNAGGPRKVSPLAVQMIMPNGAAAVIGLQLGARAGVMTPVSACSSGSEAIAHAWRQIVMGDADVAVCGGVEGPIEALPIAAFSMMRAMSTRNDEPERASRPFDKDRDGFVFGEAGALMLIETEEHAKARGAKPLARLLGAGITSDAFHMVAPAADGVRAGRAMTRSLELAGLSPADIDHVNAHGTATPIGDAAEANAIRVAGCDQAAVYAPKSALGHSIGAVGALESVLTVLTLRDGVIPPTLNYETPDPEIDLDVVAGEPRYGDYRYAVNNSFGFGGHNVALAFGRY

[3] = target: T2, 3-oxoacyl-[acyl-carrier-protein] synthase 2 (Mycobacterium tuberculosis) (UniProt P9WQD7); test: Inhibitory activity against KasB from Mycobacterium tuberculosis H37Rv at 100 uM
T2 sequence (whole entry): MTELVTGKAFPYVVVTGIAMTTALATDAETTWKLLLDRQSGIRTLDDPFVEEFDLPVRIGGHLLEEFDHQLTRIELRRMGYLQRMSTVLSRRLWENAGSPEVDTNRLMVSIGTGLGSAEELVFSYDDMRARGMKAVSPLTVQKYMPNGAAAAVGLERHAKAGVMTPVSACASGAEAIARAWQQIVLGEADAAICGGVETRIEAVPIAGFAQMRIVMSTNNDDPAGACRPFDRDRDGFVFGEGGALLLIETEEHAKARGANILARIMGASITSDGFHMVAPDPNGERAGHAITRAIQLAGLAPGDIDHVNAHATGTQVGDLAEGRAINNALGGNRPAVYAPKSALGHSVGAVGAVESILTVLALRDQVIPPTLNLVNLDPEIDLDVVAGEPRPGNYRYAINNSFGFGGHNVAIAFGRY

[4] = target: T3, 3-oxoacyl-[acyl-carrier-protein] synthase 1 (Escherichia coli K-12) (UniProt P0A953); test: Inhibitory activity against FabB from Escherichia coli ANSI at 100 uM
T3 sequence (whole entry): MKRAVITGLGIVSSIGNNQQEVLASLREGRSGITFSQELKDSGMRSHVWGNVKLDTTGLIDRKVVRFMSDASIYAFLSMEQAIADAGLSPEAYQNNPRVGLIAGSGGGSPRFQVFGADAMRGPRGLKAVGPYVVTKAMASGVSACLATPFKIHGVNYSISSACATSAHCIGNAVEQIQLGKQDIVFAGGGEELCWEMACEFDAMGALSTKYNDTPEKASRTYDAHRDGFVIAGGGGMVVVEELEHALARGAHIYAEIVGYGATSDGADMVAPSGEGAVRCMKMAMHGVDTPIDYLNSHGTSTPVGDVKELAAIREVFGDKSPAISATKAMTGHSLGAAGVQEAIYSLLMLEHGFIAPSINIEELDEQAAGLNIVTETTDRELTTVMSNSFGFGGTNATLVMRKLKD

[5] = target: T4, Mycobacterial beta-ketoacyl-[acyl-carrier-protein] synthase III (Mycobacterium tuberculosis) (UniProt P9WNG3); test: Inhibitory activity against FabH from Mycobacterium tuberculosis H37Rv at 100 uM
T4 sequence (whole entry): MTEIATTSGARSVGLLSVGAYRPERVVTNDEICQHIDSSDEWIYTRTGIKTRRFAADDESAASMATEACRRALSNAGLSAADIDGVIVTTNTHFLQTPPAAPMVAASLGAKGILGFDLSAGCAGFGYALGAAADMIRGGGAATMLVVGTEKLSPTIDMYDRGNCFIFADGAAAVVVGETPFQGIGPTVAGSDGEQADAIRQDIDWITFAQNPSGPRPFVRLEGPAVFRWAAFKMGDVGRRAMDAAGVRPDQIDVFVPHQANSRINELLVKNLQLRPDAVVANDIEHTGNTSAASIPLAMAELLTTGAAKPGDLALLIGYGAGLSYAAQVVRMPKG

[6] = target: T5, 3-oxoacyl-[acyl-carrier-protein] synthase 3 (Escherichia coli) (UniProt C3TDZ2); test: Inhibitory activity against FabH from Escherichia coli ANSI at 100 uM
T5 sequence (whole entry): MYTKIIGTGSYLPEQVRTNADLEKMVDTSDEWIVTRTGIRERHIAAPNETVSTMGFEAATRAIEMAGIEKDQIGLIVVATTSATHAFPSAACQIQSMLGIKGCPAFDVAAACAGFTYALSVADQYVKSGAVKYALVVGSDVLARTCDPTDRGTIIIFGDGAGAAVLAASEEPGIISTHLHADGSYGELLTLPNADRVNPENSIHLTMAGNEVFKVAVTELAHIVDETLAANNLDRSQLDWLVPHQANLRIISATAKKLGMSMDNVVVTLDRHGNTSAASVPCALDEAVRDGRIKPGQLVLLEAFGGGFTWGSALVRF

[7] = target: T6, 3-oxoacyl-[acyl-carrier-protein] synthase 3 (Escherichia coli, UniProt C3TDZ2); test: Inhibitory activity against FabH from Escherichia coli ANSI
T6 sequence (C3TDZ2 whole entry): T5 sequence (whole entry)

[8] = target: T7, Mycobacterial beta-ketoacyl-[acyl-carrier-protein] synthase III (Mycobacterium tuberculosis, UniProt P9WNG3); test: Inhibitory activity against FabH from Mycobacterium tuberculosis H37Rv
T7 sequence (P9WNG3 whole entry): T4 sequence (whole entry)

[9] = target: T8, 3-oxoacyl-[acyl-carrier-protein] synthase 1 (Escherichia coli K-12, UniProt P0A953); test: Inhibitory activity against FabB from Escherichia coli ANSI
T8 sequence (P0A953 whole entry): T3 sequence (whole entry)

[10] = target: T9, 3-oxoacyl-[acyl-carrier-protein] synthase 2 (Mycobacterium tuberculosis, UniProt P9WQD7); test: Inhibitory activity against KasB from Mycobacterium tuberculosis H37Rv
T9 sequence (P9WQD7 whole entry): T2 sequence (whole entry)

wild-type apo-KasA = wild-type apo-KasA (Mycobacterium tuberculosis, UniProt P9WQD9); test: Inhibitory activity against KasA from Mycobacterium tuberculosis H37Rv

CC1=C(O)C(C)(C/C=C/c2ccccc2)SC1=O (stereo not given)
MIC [1]: > 1000 µM | MIC (Escherichia coli): > 1000 µM | inhibition [2]: inactive | inhibition [3]: inactive | inhibition [4]: inactive | inhibition [5]: inactive | inhibition [6]: inactive

CCCCCC1(C)SC(O)=C(C)C1=O (stereo not given)
MIC [1]: 500 µM (≈ 107 µg/mL) | MIC (Escherichia coli): > 1000 µM | inhibition [2]: inactive | inhibition [3]: inactive | inhibition [4]: inactive | inhibition [5]: inactive | inhibition [6]: inactive

CCCCCCCCCCCCC1(C)SC(O)=C(C)C1=O (stereo not given)
MIC [1]: 1000 µM (≈ 313 µg/mL) | MIC (Escherichia coli): 25 µM (≈ 7.81 µg/mL) | inhibition [2]: inactive | inhibition [3]: inactive | inhibition [4]: inactive | pIC50 [7]: 4.00 | pIC50 [8]: 4.30

CCCCCCC1(C)SC(O)=C(C)C1=O (stereo not given)
MIC [1]: 1000 µM (≈ 228 µg/mL) | MIC (Escherichia coli): > 1000 µM | inhibition [2]: inactive | inhibition [3]: inactive | inhibition [4]: inactive | inhibition [5]: inactive | inhibition [6]: inactive

CC(C)=CCC/C(C)=C/CC1(C)SC(O)=C(C)C1=O (stereo not given)
MIC [1]: > 1000 µM | MIC (Escherichia coli): > 1000 µM | inhibition [2]: inactive | inhibition [3]: inactive | inhibition [4]: inactive | pIC50 [7]: 4.00 | inhibition [5]: inactive

CC1=C(O)C(C)(C2CCCC2)SC1=O (stereo not given)
MIC [1]: > 1000 µM | MIC (Escherichia coli): > 1000 µM | inhibition [2]: inactive | inhibition [3]: inactive | inhibition [4]: inactive | inhibition [5]: inactive | inhibition [6]: inactive

CC1=C(O)C(C)(C2CCCCC2)SC1=O (stereo not given)
MIC [1]: 1000 µM (≈ 226 µg/mL) | MIC (Escherichia coli): > 1000 µM | inhibition [2]: inactive | inhibition [3]: inactive | inhibition [4]: inactive | inhibition [5]: < 30% | inhibition [6]: inactive | pIC50 [8]: < 4.00

CCCCCCCCCCCCCC1(C)SC(O)=C(C)C1=O (stereo not given)
pIC50 [9]: < 4.00 | MIC [1]: 500 µM (≈ 163 µg/mL) | MIC (Escherichia coli): > 200 µM | inhibition [2]: inactive | inhibition [3]: inactive | inhibition [4]: < 30% | pIC50 [7]: 4.00 | pIC50 [8]: 4.10

CC1=C(O)C(C)(Cc2ccc(Cl)cc2Cl)SC1=O (stereo not given)
MIC [1]: 500 µM (≈ 152 µg/mL) | MIC (Escherichia coli): 150 µM (≈ 45.5 µg/mL) | inhibition [2]: inactive | inhibition [3]: inactive | inhibition [4]: inactive | inhibition [5]: < 30% | inhibition [6]: inactive | pIC50 [8]: < 4.00

CC1=C(O)C(C)(Cc2ccccc2)SC1=O (stereo not given)
MIC [1]: > 1000 µM | MIC (Escherichia coli): > 1000 µM | inhibition [2]: inactive | inhibition [3]: inactive | inhibition [4]: inactive | inhibition [5]: inactive | inhibition [6]: inactive

CC1=C(O)SC(C)(CC(C)C)C1=O (stereo not given)
MIC [1]: > 1000 µM | MIC (Escherichia coli): > 1000 µM | inhibition [2]: inactive | inhibition [3]: inactive | inhibition [4]: inactive | inhibition [5]: inactive | inhibition [6]: inactive

CC1=C(O)C(C)(Cc2ccc(C(F)(F)F)cc2)SC1=O (stereo not given)
MIC [1]: 1000 µM (≈ 302 µg/mL) | MIC (Escherichia coli): > 1000 µM | inhibition [2]: inactive | inhibition [3]: inactive | inhibition [4]: inactive | inhibition [5]: < 30% | inhibition [6]: inactive | pIC50 [8]: < 4.00

CC1=C(O)SC(C)(C(C)C)C1=O (stereo not given)
MIC [1]: > 1000 µM | MIC (Escherichia coli): > 1000 µM | inhibition [2]: inactive | inhibition [3]: inactive | inhibition [4]: inactive | inhibition [5]: inactive | inhibition [6]: inactive

CCCCCCCCCCCCCCC1(C)SC(O)=C(C)C1=O (stereo not given)
pIC50 [9]: < 4.00 | MIC [1]: 1000 µM (≈ 341 µg/mL) | MIC (Escherichia coli): 200 µM (≈ 68.1 µg/mL) | inhibition [2]: inactive | inhibition [3]: inactive | inhibition [4]: < 30% | pIC50 [7]: 4.00 | pIC50 [8]: 4.10

CCC(CC)CC1(C)SC(O)=C(C)C1=O (stereo not given)
MIC [1]: 1000 µM (≈ 228 µg/mL) | MIC (Escherichia coli): > 1000 µM | inhibition [2]: inactive | inhibition [3]: inactive | inhibition [4]: inactive | inhibition [5]: inactive | inhibition [6]: inactive

C=C(C)CC1(C)SC(O)=C(C)C1=O (stereo not given)
MIC [1]: > 1000 µM | MIC (Escherichia coli): > 1000 µM | inhibition [2]: inactive | inhibition [3]: inactive | inhibition [4]: inactive | inhibition [5]: inactive | inhibition [6]: inactive

CC1=C(O)SC(C)C1=O (stereo not given) [THIOLACTONE]
MIC [1]: > 1000 µM | MIC (Escherichia coli): > 1000 µM | inhibition [2]: inactive | inhibition [3]: inactive | inhibition [4]: inactive | inhibition [5]: inactive | inhibition [6]: inactive

C=CCC1(C)SC(=O)C(C)=C1O (stereo not given)
MIC [1]: > 1000 µM | MIC (Escherichia coli): > 1000 µM | inhibition [2]: inactive | inhibition [3]: inactive | inhibition [4]: inactive | inhibition [5]: inactive | inhibition [6]: inactive

C=CC(C)CC1(C)SC(O)=C(C)C1=O (stereo not given)
MIC [1]: > 1000 µM | MIC (Escherichia coli): > 1000 µM | inhibition [2]: inactive | inhibition [3]: inactive | inhibition [4]: inactive | inhibition [5]: inactive | inhibition [6]: inactive

C/C=C/CC1(C)SC(O)=C(C)C1=O (stereo not given)
MIC [1]: > 1000 µM | MIC (Escherichia coli): > 1000 µM | inhibition [2]: inactive | inhibition [3]: inactive | inhibition [4]: inactive | inhibition [5]: inactive | inhibition [6]: inactive

CCC(C)C1(C)SC(O)=C(C)C1=O (stereo not given)
MIC [1]: > 1000 µM | MIC (Escherichia coli): > 1000 µM | inhibition [2]: inactive | inhibition [3]: inactive | inhibition [4]: inactive | inhibition [5]: < 30% | inhibition [6]: inactive | pIC50 [8]: < 4.00

CCCCCCCCCCC1(C)SC(O)=C(C)C1=O (stereo not given)
MIC [1]: 500 µM (≈ 142 µg/mL) | MIC (Escherichia coli): 100 µM (≈ 28.4 µg/mL) | inhibition [2]: inactive | inhibition [3]: inactive | inhibition [4]: inactive | pIC50 [7]: 4.00 | inhibition [5]: < 30% | pIC50 [8]: < 4.00

CC1=C(O)C(C)(Cc2cccc(Cl)c2)SC1=O (stereo not given)
pIC50 [10]: < 3.00 | pIC50 [9]: < 3.00 | MIC [1]: 1000 µM (≈ 269 µg/mL) | MIC (Escherichia coli): > 1000 µM | pIC50 (wild-type apo-KasA): < 4.00 | pIC50 [7]: < 3.00 | pIC50 [8]: < 3.00

CC1=C(O)C(C)(CCCc2ccccc2)SC1=O (stereo not given)
pIC50 [10]: < 3.00 | pIC50 [9]: < 3.00 | MIC [1]: 1000 µM (≈ 262 µg/mL) | MIC (Escherichia coli): > 1000 µM | pIC50 (wild-type apo-KasA): < 3.00 | pIC50 [7]: < 3.00 | pIC50 [8]: < 3.00
